Source: patent publication US12319710B2, “Catecholamine prodrugs for use in the treatment of Parkinson's diseases” (H. Lundbeck A/S, priority 2019, dated 2025)

Key:
[1] = PK experiments in rats: plasma compound (I) after oral dosing of prodrug; assay type: in vivo, Wistar rats; conditions: Wistar rats, oral
Protocol: Plasma was placed on water-ice following collection. Final storage at approximately −70° C.
Mobile phase B: Acetonitrile. […] Flow rate 0.5 mL/min.
The rats had unrestricted access to the diet.
Mobile phase B: Acetonitrile+0.2% formic acid. […] Flow rate 0.3 mL/min.
Dosing and blood sampling: Han Wistar rats were supplied by Envigo, UK. […] The rats received a standard laboratory diet Teklad 2014C. The rats had unrestricted access to the diet. […] Rats were given […] (Ic), 487 ag/kg compound (7), 487 ag/kg Compound (4), 674 ag/kg compound (9), 359 ag/kg A6 and 551 ag/kg A2.

[2] = biological target: T1, human 5-HT2B receptor (Homo sapiens, UniProt P41595); assay: 5-HT2B agonist activity assay (IP1 production, HTRF, transfected CHO cells); assay type: cell-based
T1 construct: host or cells: CHO cells (membrane homogenates)
T1 sequence (P41595 whole entry): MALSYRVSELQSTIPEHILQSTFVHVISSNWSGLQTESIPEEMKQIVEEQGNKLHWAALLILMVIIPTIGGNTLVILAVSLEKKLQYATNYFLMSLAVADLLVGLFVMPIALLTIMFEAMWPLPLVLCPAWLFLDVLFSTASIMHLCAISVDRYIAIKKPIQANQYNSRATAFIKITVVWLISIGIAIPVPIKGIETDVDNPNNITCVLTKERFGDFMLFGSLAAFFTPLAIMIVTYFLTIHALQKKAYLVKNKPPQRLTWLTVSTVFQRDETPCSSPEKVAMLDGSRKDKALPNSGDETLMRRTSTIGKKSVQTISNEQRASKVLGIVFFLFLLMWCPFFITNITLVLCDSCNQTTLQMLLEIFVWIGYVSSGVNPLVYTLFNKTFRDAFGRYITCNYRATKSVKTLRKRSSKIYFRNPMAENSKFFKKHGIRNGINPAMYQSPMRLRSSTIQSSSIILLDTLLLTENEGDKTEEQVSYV
Protocol: Evaluation of the agonist activity of compounds (I), (Ia) and (Ib) at the human 5-HT2B receptor was performed by Eurofins/Cerep (France) measuring the compound effects on inositol monophosphate (IP1) production using the HTRF detection method. Briefly, the human 5-HT2B receptor was expressed in transfected CHO cells. The cells were suspended in a buffer containing 10 mM Hepes/NaOH (pH 7.4), 4.2 mM KCl, 146 mM NaCl, 1 mM CaCl2, 0.5 mM MgCl2, 5.5 mM glucose and 50 mM LiCl, then distributed in microplates at a density of 4100 cells/well and incubated for 30 minutes at 37° C. in the presence of buffer (basal control), test compound or reference agonist. For stimulated control measurement, separate assay wells contained 1 μM 5-HT. Following incubation, the cells were lysed and the fluorescence acceptor (fluorophen D2-labeled IP1) and fluorescence donor (anti-IP1 antibody labeled with europium cryptate) were added. After 60 minutes at room temperature, the fluorescence transfer was measured at lambda(Ex) 337 nm and lambda(Em) 620 and 665 nm using a microplate reader (Rubystar, BMG). The IP1 concentration was determined by dividing the signal measured at 665 nm by that measured at 620 nm (ratio). The results were expressed as a percent of the control response to 1 μM 5-HT. […]

[3] = man, oral dosing; cited from earlier work

With `CCCN1CCC[C@@H]2Cc3c(ccc4c3OCO4)C[C@H]21` [(Ib), (6aR,10aR)-7-propyl-6,6a,7,8,9,10,10a,11-octahydro-[1,3]dioxolo[4′,5′:5,6]benzo[1,2-g]quinoline, reference compound] as the compound, how does the “plasma concentrations of compound (I) after oral dosing (in words)” value [1] read?
Its value is “early and high peak plasma concentrations of compound (I)”.

And the “5-HT2B receptor agonism (in words)” value [2]?
The value was “agonist of the 5-HT2B receptor”.

With `CCCN1CCC[C@@H]2CC3=C(CCCC3=O)C[C@H]21` [(Ia), reference compound] as the compound, how does the “plasma concentrations of compound (I) after oral dosing (in words)” value [1] read?
Its value is “early and high peak plasma concentrations of compound (I)”.

What about the “5-HT2B % @ 30 uM” value ([2]; 30 uM, percent of control response to 1 μM 5-HT) of the same compound?
Its value is 58%.

For `CCCc1cc2c(s1)CN[C@@H]1CCc3cc(OC(C)=O)c(OC(C)=O)cc3[C@@H]21` [Adrogolide], which oral bioavailability [3] is on record?
The oral bioavailability was about 4%.
